Assay results as given in patent publication US8193168B2, “Use of a TRPM5 inhibitor to regulate insulin and GLP-1 release” (Redpoint Bio Corporation, priority 2007, dated 2012).

Experiments:
[1] = system: Beta-TC-6 cells; assay: Insulin release enhancement in Beta-TC-6 cells (insulin ELISA); assay type: cell-based, mouse; conditions: for Percent Enhancement of Insulin Secretion (10 μM): compound at 10 μM; for glucose dependence of stimulation of insulin release: varying glucose concentration, FIG. 3 and FIG. 7
Description: Beta-TC-6 cells are an insulin-secreting cell line derived from transgenic mice expressing the large T-antigen of simian virus 40 (SV40) in pancreatic beta-cells as described by Poitout et al., Diabetes, 44:306-313 (1995). The cell line was obtained from ATCC cell bank CAT# CRL-11506 and grown in Dulbecco's Modified Eagle's Medium (DMEM) with 15% fetal bovine serum (FBS), 4 mM glutamine, 4.5 mM glucose 1500 mg/L sodium bicarbonate and 1× penn/strep antibiotic mix in a 37° C. incubator with 5% CO2. Cultures were routinely split 1:2 twice a week with the aid of trypsin.
On the day before the assay 0.1×10^6 Beta-TC-6 cells were plated into each well of 96 well plates, and the cells cultured overnight in growth media.
On the next day, growth media was removed from the plate and the monolayers rinsed with phosphate buffered saline (PBS) and pre-incubated 30 mins at 37° C. in Krebs-Ringer Bicarbonate Buffer (KRBB) consisting of 118.5 mM NaCl, 2.54 mM CaCl2, 1.19 mM KH2PO4, 4.74 mM KCl, 25 mM NaHCO3, 1.19 mM MgSO4, 10 mM HEPES buffer and 0.1% bovine serum albumin at pH 7.4. This buffer was removed and replaced with 100 μL of the same buffer containing various insulin release modulators: including various concentrations of glucose up to 12 mM and compounds up to 100 μM. Compounds stock solutions, e.g. 10-20 mM, were diluted in DMSO. Final DMSO concentrations in incubation buffer were 0.5% or less. Vehicle controls were included. Static incubations were then performed for 2 h at 37° C. The entire incubation volume was collected after the 2 h incubation for insulin assay.
ELISA Protocol for insulin determinations. The following protocol was used for doing ELISA using the Rat/Mouse Insulin ELISA Kit from Linco Research, Inc., CAT#EZRMI-13K and Amplex® Red Hydrogen Peroxide/Peroxidase Assay Kit, CAT#A22188, and Amplex® Red reagent (10-acetyl-3,7-dihydroxyphenoxazine) CAT#A12222.
All reagents were Pre-warmed to room temperature before setting up experiment.
1. Dilute the 10× washing buffer into 1× washing buffer. 50 mL+450 mL de-ionized water. Do 1:10 dilution to the cell culture supernatant (Beta-TC-6 cell incubation).
2. Use one column (8 wells) wells for standard samples and QC1 and QC2, typically 0 and 5 ng/mL of insulin. On some plates full standard curves for insulin obtained as shown below.
3. Cover the unused wells well. Wash each well 3 times with 300 μL of 1× washing buffer each time. (2 minutes each washing step on the shaker.) Decant Wash Buffer and remove the residual amount from all wells by inverting the plate and tapping it smartly onto absorbent towels several times.
4. Add 20 μL Assay Buffer into that blank well and 10 μL into those wells for standards and samples.
5. Add 10 μL rat insulin standards and samples to the appropriate wells.
6. Add 80 μL Detection Antibody to all wells. Cover the plate and incubate at room temperature for 2 hours.
7. Tear off the plate cover and decant solutions from the plate. Tap to remove residual solutions in well.
8. Wash well 3 times with diluted wash buffer 300 μL per well per wash (2 minutes each washing step on the shaker). Tap to remove residual solutions as before.
9. Add 100 μL Enzyme Solution to each well. Cover plate with sealer and incubate with moderate shaking at room temperature for 30 min on the microtiter plate shaker.
10. Remove sealer, decant solutions from the plate and tap plate to remove the residual fluid.
11. Wash wells 6 times with diluted Wash Buffer, 300 μL per well per wash. Decant and tap after each wash to remove residual buffer.
12. Prepare 5 mL working solution of […] Amolex Red reagent containing 2.0 mM H2O2. 4.45 mL of 1× Reaction buffer+50 μL 10 mM Amplex Reagent+500 μL 20 mM H2O2.
13. Add 100 μL of the Amplex Red reagent/H2O2 to each well.
14. Incubate the reactions. Incubate at room temperature for 30 minutes, protected from light (using foil to wrap the plate). […]

[2] = target: T1, TRPM5 (Homo sapiens, UniProt Q9NZQ8); assay: TRPM5 inhibition (FLIPR Membrane Potential Assay); assay type: cell-based
T1 sequence (Q9NZQ8 1-1165): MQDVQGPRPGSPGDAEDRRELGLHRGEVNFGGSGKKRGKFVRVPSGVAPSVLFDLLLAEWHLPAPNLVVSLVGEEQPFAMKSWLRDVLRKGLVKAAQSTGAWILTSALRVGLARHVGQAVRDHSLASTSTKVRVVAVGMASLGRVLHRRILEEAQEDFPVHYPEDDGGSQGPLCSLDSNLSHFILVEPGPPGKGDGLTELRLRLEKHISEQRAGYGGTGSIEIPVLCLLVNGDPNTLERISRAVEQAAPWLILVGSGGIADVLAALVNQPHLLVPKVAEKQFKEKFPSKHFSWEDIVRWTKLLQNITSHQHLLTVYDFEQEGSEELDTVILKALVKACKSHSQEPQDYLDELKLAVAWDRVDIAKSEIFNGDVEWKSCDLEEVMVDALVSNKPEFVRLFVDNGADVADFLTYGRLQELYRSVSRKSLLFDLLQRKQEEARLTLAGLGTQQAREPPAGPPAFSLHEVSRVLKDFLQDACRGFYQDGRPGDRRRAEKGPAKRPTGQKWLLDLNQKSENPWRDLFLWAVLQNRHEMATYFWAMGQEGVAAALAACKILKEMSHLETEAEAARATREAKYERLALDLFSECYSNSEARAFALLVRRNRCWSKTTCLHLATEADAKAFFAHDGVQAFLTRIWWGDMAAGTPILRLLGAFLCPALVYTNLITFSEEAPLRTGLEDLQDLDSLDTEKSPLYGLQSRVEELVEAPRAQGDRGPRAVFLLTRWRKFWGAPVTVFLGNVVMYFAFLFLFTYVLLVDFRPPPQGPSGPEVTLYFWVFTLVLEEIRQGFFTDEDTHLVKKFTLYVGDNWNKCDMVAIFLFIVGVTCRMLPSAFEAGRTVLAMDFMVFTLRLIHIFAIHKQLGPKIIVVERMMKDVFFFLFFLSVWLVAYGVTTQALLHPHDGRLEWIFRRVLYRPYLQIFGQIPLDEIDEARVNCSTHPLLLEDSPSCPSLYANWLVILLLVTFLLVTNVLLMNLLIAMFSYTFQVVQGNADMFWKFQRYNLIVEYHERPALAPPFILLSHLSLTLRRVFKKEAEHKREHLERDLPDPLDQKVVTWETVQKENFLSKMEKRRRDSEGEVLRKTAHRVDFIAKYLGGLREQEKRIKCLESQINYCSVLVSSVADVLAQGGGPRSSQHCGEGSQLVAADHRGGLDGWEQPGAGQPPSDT

[3] = system: calcium-activated current in Beta TC6 cells; assay: Whole-cell electrophysiology of calcium-activated current in Beta TC6 cells; assay type: cell-based, mouse; conditions: pulsed doses, current versus time, FIG. 13
Description: Whole-cell recordings of TRP channel currents were obtained from acutely trypsinized beta TC-6 cells and TRPM5-expressing HEK cells. The bath solution was Hank's Balanced Salt Solution, composed of (mM); 1.2 CaCl2, 0.5 MgCl2-6H2O, 0.4 MgSO4.7H2O, 5.3 KCl, 0.4 KH2PO4, 137.9 NaCl, 0.3 Na2HPO4.7H2O, and 5.5 D-Glucose, with 20 mM HEPES (Invitrogen), pH 7.4 (NaOH). The internal pipette solution contained, in mM: 135 glutamic acid, 8 NaCl, 9 CaCl2, 10 HEPES and 10 EGTA, pH 7.2 (CsOH) (Sigma). Calculated concentration of free calcium in internal solution was 1.5 μM (http://www.stanford.edu/˜cpatton/webmaxc/webmaxcS.htm). Recording pipettes were pulled using a Flaming/Brown Micropipette Puller (Sutter Instruments), from fire-polished borosilicate glass, to approximately 2 MΩ.
Voltage clamp recordings were obtained in whole cell mode using MultiClamp 700B amplifier and Digidata 1322A converter running on Clampex 9.2 software (Axon Instruments). Recordings were performed at room temperature. The recording protocol consisted of a ramp from −80 mV potential to +80 mV, followed by a step to −80 mV. Peak current was measured at three different voltages: −80 mV, after ramping to +80 mV, then following a return to −80 mV. Series resistance was automatically compensated immediately after the break-in, and the resulting capacitance measurements were used for current density calculations. […]

[4] = compared to glucose-dependent insulin production

IC50 [2] | SMILES | effect on insulin secretion in combination with tolbutamide ([1]; FIG. 6) | Percent Enhancement of Insulin Secretion (10 μM) [1, 4] | glucose dependence of stimulation of insulin release [1] | inhibition of calcium-activated current [3] | Percent Enhancement of Insulin Secretion ([1]; tolbutamide tested at 30 μM, compared to glucose-dependent insulin production)
600 nM | COc1ccc(/C=N/NC(=O)C2CC2c2ccccc2)cc1OC (centres unmarked) [Example 4, (E)-N′-(3,4-Dimethoxybenzylidene)-2-phenylcyclopropanecarbohydrazide] | additive effects | 111% | increases insulin secretion in a glucose-dependent manner | inhibition of the current | –
3000 nM | COc1ccc(/C=N/NC(=O)COc2cccc(C)c2)cc1OC [Example 8, (E)-N′-(3,4-Dimethoxybenzylidene)-2-(m-tolyloxy)acetohydrazide] | – | 39% | – | – | –
400 nM | COc1ccc(/C=N/NC(=O)CSc2cc(C)c3cccc(C)c3n2)cc1OC [Example 24, (4,8-Dimethylquinolin-2-ylsulfanyl)acetic acid (3,4-dimethoxybenzylidene)hydrazide] | – | 207% | – | – | –
– | CCCCNC(=O)NS(=O)(=O)c1ccc(C)cc1 [Tolbutamide, tolbutamide, reference compound] | – | – | not sensitive to glucose levels | – | 228%
